Each structure is given as a SMILES string.

For test [1], the system named is TCR-mediated tyrosine phosphorylation in Jurkat T cells. Briefly: Anti-CD3 (TCR) induced tyrosine phosphorylation in Jurkat T cells, immunoblot. It counts as cell-based. As to conditions: 2-4 μM, 2 hours pretreatment, anti-CD3 stimulation. On the procedure: (§1) Jurkat T cells were grown at 37° C. under an atmosphere of 5% CO2 in RPMI medium 1640 supplemented with 10% FBS. Cells were pretreated with different concentrations of TTN, TTN D-1, or TTM for 2 hours and stimulated with […] anti-CD3 antibody (OKT3; eBioscience) for 5 min and 30 min, respectively. Subsequently, cells were spinned down at 2000 rpm in 4° C., and cell pellets were lysed in 50 mM Tris-HCl (pH 7.5), 150 mM NaCl, 10% glycerol, 1% NP-40, 50 mM NaF, 10 mM pyrophosphate, 5 mM idoacetate, 1 mM sodium orthovanadate, and the protease inhibitor mixture. After 30 min lysing on ice, the cell lysates were centrifuged at 13,200 rpm for 15 min. Total cellular proteins were separated by SDS/PAGE and transferred electrophoretically to nitrocellulose membrane, which was immunoblotted by appropriate antibodies followed by incubation with HRP-conjugated secondary antibodies. Blots were developed using Pierce Pico ECL reagent (Thermo) according to the manufacturer's instructions.
(§2) TTN induces immunosuppression by suppression of TCR-mediated tyrosine phosphorylation and ERK1/2 activity in T cells (Shim et al., 2002). However, the mechanism of action for TTN's ability to block TCR signaling remains undefined. […]
For orientation: Immunoblotting shows a protein as a band on a membrane.

The test system of test [2] is TCR-mediated ERK1/2 activation in Jurkat T cells. Briefly: Anti-CD3 (TCR) induced ERK1/2 activation in Jurkat T cells, immunoblot. Type of test: cell-based. As to conditions: 2 hours pretreatment, anti-CD3 stimulation. On the procedure: as §1, §2
In test [3] the test system is panel of PTPs (PTP1B, SHP1, SHP2, Lyp, HePTP, Meg2, FAP1, CD45, LAR, PTPα, VHR, VHX, Cdc14, low molecular weight PTP). Briefly: Screen against a panel of PTPs at 10 μM compound (pNPP hydrolysis). As to conditions: pH 7, 25° C. Type of test: biochemical. On the procedure:
The PTP activity was assayed using pNPP as a substrate at 25° C. in 50 mM 3,3-dimethylglutarate buffer, pH 7.0, containing 1 mM EDTA with an ionic strength of 0.15 M adjusted by NaCl. TTM, TTN and the engineered analogs were analyzed for inhibition of a panel of PTPs at 10 μM compound concentration. For each enzyme screened, test compounds were diluted to 20 μM in 100 μL and combined with 50 μL pNPP at a concentration of 4×Km. The reaction was initiated by the addition of 50 μL of 4× concentrated enzyme and pNPP was allowed to convert to the product p-nitrophenol. The reaction was quenched by the addition of 50 μL of 5N NaOH. Nonenzymatic hydrolysis of pNPP was corrected by measuring the control without the addition of enzyme. Production of p-nitrophenol was monitored by a Spectra MAX385 microplate spectrophotometer (Molecular Devices) at 405 nm using a molar extinction coefficient of 18,000 M^−1 cm^−1. IC50 values were calculated by fitting the absorbance at 405 nm versus inhibitor concentration to the following equation: AI/A0=IC50/(IC50+[I]) where AI is the absorbance at 405 nm of the sample in the presence of inhibitor; Ao is the absorbance at 405 nm in the absence of inhibitor; and [I] is the concentration of the inhibitor. […]

Another test has as its system PP1. As to conditions: literature values; cited from earlier work.
For another test, the target named is T1, SHP2 (Homo sapiens, UniProt Q06124).
T1 construct: The expression and purification of the SHP2 catalytic domain (residues 262-528) were described previously; made in house
T1 sequence (Q06124 262-528): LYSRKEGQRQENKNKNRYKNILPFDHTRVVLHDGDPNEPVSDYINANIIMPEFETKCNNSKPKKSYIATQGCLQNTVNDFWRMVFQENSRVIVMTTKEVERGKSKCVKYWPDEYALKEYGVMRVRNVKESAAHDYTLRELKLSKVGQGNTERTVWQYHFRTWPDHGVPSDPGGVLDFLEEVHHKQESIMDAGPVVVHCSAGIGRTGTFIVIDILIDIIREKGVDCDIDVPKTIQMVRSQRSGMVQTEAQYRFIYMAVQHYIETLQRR
Briefly: PTP activity assay with pNPP as substrate: SHP2. Type of test: biochemical.

In the next test the test system is PP2A. As to conditions: literature values; cited from earlier work.

The IC50 is the concentration at which inhibition is half-maximal. Regarding `CO[C@H]([C@H](O)CC(=O)[C@@H](C)[C@@H](O)CC[C@@H](C)[C@@H]1O[C@]2(CC[C@@H](C)[C@H](CC[C@H](C)C(C)=O)O2)CC[C@@H]1C)[C@H](OC(=O)C[C@@H](O)C1=C(C)C(=O)OC1=O)C(C)C` [TTM, tautomycin, reference compound], the “effect on TCR-mediated tyrosine phosphorylation” value in test [1] is reported as “had no effect”. The “effect on TCR-mediated ERK1/2 activation” value in test [2] is “no appreciable change”. Also, in test [3], the “inhibitory activity against the panel of PTPs” value is listed as “neither TTM nor its analogs exhibited any inhibitory activity”. Also, the IC50 with PP1 and in the test on PP2A was 22 to 32 nM in each case. On SHP2, the “SHP2 inhibitory activity (in words)” value is listed as “does not inhibit SHP2 activity”.

The values above are taken from patent US8637684B2, “Tautomycetin and tautomycetin analog biosynthesis” (Wisconsin Alumni Research Foundation, priority 2010, dated 2014).
